# Data published in article PMC4100783 (Biochemistry, 2014).
# Several values for one entry are separate records, joined by “and”; a condition that tells them apart may be missing. Equal values may be shown once.
# Experiments:
# [1] = tested on: mftR; conditions: cited from earlier work
# [2] = tested on: MftR-mftrO complex; assay type: biochemical, Burkholderia thailandensis
# [3] = tested on: MftR-mftpO complex; assay type: biochemical, Burkholderia thailandensis
# [4] = target: mftR; assay type: binding, Burkholderia thailandensis; conditions: read-out: K
# [5] = tested on: mftR; assay type: binding, Burkholderia thailandensis
# [6] = tested on: MftR W11F; assay type: binding, Burkholderia thailandensis
# [7] = tested on: MftR D56S; assay type: binding, Burkholderia thailandensis
# [8] = target: T1, MftR WT (Burkholderia thailandensis E264, UniProt Q2SVY7 1-164); experiment: EMSA
# T1 sequence: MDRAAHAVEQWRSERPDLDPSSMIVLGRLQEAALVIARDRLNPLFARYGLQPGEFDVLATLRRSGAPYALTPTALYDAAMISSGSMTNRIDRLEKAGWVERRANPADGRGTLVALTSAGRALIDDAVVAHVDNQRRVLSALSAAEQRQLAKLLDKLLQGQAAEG
molecule,measurement,setting,value
O=c1[nH]cnc2nc[nH]c12 [hypoxanthine],effect on DNA binding by MftR,[1],"inhibit DNA binding, albeit less efficiently than urate"
O=c1[nH]c(=O)c2[nH]c(=O)[nH]c2[nH]1 [urate],IC50,[2],3700 ± 300 µM
same,IC50,[3],2200 µM
same,Kd,[4],6.1 ± 2.1 µM
same,Tm of MftR,[5],61.3 ± 1.0 °C
same,Tm of MftR D1,[5],49.2 ± 0.2 °C
same,Tm of MftR D2,[5],58.0 ± 0.1 °C
same,Tm of W11F,[6],27.0 ± 0.1 °C and 28.8 ± 0.7 °C
same,increase of Tm compared to protein alone,[6],~4 °C
same,Tm of D56S,[7],52.3 ± 0.3 °C and 51.3 ± 0.1 °C
O=c1[nH]c(=O)c2nc[nH]c2[nH]1 [xanthine],effect on DNA binding by MftR,[1],"inhibit DNA binding, albeit less efficiently than urate"
mftpO (dsDNA) DNA 1: TGTCGAATCTATCTTGATGTCGAGACAATTATACGC DNA 2: GCGTATAATTGTCTCGACATCAAGATAGATTCGACA,Kd,[8],0.0006 ± 0.0001 µM
mftrO (dsDNA) DNA 1: CGTCCAAGTTATCTTGACGTAGAGACATGTCGAATC DNA 2: GATTCGACATGTCTCTACGTCAAGATAACTTGGACG,Kd,[8],0.0007 ± 0.0001 µM
